Results: patent US12251370B2, “Small molecule inhibitors of the BfrB:Bfd interaction” (BOARD OF SUPERVISORS OF LOUISIANA STATE UNIVERSITY AND …, priority 2018, dated 2025)
Where “and” joins values, the source holds several entries; their conditions need not be identical. Equal entries are not always repeated.

Legend:
Assay type in all cases: cell-based, Pseudomonas aeruginosa
[1] = test system: P. aeruginosa clinical isolate MR3B; test: Effect of analog on ciprofloxacin potency, clinical isolate MR3B
Method: The combined treatment was carried out similarly, ensuring that the final concentration of DMSO was 2%.

P. aeruginosa cells = test: microbe, parasite or virus in culture; conditions: 13 h
Method: These experiments were carried out in 96 well plates, as described above. […] The 500-fold diluted solution was centrifuged and the cell-free supernatant was analyzed for pyoverdin by fluorescence spectrophotometry in a Synergy H1 microplate reader (BioTek) with excitation at 400 nm and emission at λmax=455 nm. Full emission spectra (430-550 nm) were also recorded using a Perkin Elmer LS50B spectrophotometer.
As indicated above, genetic manipulations were used in prior work to delete the bfd gene (Δbfd) and evaluate the consequences of inhibiting the BfrB-Bfd interaction in P. aeruginosa.^18 Preventing the BfrB-Bfd interaction in the Δbfd mutant cells dysregulates iron homeostasis by causing the irreversible accumulation of iron in BfrB and the concomitant depletion of free iron levels in the cytosol. […] To analyze the levels of secreted pyoverdin, cells were pelleted and the supernatant was diluted 500-fold prior to measuring the fluorescence intensity at 455 nm (FIG. 7B).

[2] = test system: wild type P. aeruginosa cells; test: Growth response of wild type cells to analog (viable cell count); conditions: M63 + 4 μM Fe; 15 h post-inoculation; viable cells vs untreated control
Method: (§1) To this end, wild type and ΔbfrB cells were cultured in M63 media supplemented with 4 μM Fe, in the presence of different concentrations of analog. […] Since BfrB is not essential, it is likely that the cell can compensate for the absence of the iron storage protein. […] The sudden onset of toxicity observed in the second phase, which is not observed with the wild type cells, is probably related to off-target effects that expose a fitness vulnerability caused by the absence of BfrB. Consequently, it is possible to conclude that the dose-dependent growth defect elicited by 11 or 16 on wild type P. aeruginosa cells is largely a consequence of the interaction between the small molecule inhibitors and BfrB in the bacterial cell. This issue was investigated in additional detail (see below) by probing the phenotypic and biochemical response of wild type cells treated with the small molecule inhibitors.

[3] = test system: ΔbfrB P. aeruginosa cells; test: Growth response of bfrB deletion mutant cells to analog; conditions: M63 + 4 μM Fe; 15 h post-inoculation; viable cells vs untreated control
Method: as §1

## O=C1NC(=O)c2c(NCCCc3cccc(O)c3)cccc21 [Analog 16, 4-((3-(3-Hydroxyphenyl)propyl)amino)isoindoline-1,3-dione]
[1]; analog 16 + ciprofloxacin
  survival, fold lower relative to ciprofloxacin alone: approximately 20 fold
[1]; analog 16 + ciprofloxacin 0.2 μg/mL
  survival: 0.5%
[1]; analog 16 only, 125 μM
  survival: ca. 50%
P. aeruginosa cells; Pseudomonas aeruginosa, read-out: viable cells relative to untreated control
  viability at 125 µM: ~30%
P. aeruginosa cells; analog 125 μM, emission 455 nm
  pyoverdin secreted, fluorescence normalized to viable cells (CFU/mL), relative to untreated control: ~4.5 fold and ~4 fold
[2]
  growth response of wild type cells: monophasic dose-dependent growth defect
[3]
  growth response of ΔbfrB mutant cells: biphasic growth response
